Columns and labels:
[1] = Antagonist activity at human CCR2 assessed as inhibition of MCP1 induced chemotaxis after 30 mins
[2] = Antagonist activity at mouse CCR2 assessed as inhibition of MCP1 induced chemotaxis after 30 mins

Row | SMILES | IC50 [1] [nM] | IC50 [2] [nM]
1 | CCO[C@H]1CN([C@H]2CC[C@@](O)(c3ccc(C)cc3)CC2)C[C@@H]1NC(=O)CNC(=O)c1cccc(C(F)(F)F)c1 [N-(2-((3S,4S)-4-ethoxy-1-(cis-4-hydroxy-4-p-tolylcyclohexyl)pyrrolidin-3-ylamino)-2-oxoethyl)-3-(trifluoromethyl)benzamide] | 1.4 | 13
2 | CCO[C@H]1CN([C@H]2CC[C@@](O)(c3ccccc3)CC2)C[C@@H]1NC(=O)CNC(=O)c1cccc(C(F)(F)F)c1 [N-(2-((3S,4S)-4-ethoxy-1-(cis-4-hydroxy-4-phenylcyclohexyl)pyrrolidin-3-ylamino)-2-oxoethyl)-3-(trifluoromethyl)benzamide] | 3 | 444
3 | CCO[C@H]1CN([C@H]2CC[C@@H](c3ccccc3)CC2)C[C@@H]1NC(=O)CNC(=O)c1cccc(C(F)(F)F)c1 [N-(2-((3S,4S)-4-ethoxy-1-(cis-4-phenylcyclohexyl)pyrrolidin-3-ylamino)-2-oxoethyl)-3-(trifluoromethyl)benzamide] | 6.5 | 14
4 | O=C(CNC(=O)c1cccc(C(F)(F)F)c1)N[C@H]1CN([C@H]2CC[C@@H](c3ccccc3)CC2)C[C@@H]1O [N-(2-((3S,4S)-4-hydroxy-1-(cis-4-phenylcyclohexyl)pyrrolidin-3-ylamino)-2-oxoethyl)-3-(trifluoromethyl)benzamide] | 12 | 265
5 | CCCO[C@H]1CN([C@H]2CC[C@@H](c3ccccc3)CC2)C[C@@H]1NC(=O)CNC(=O)c1cccc(C(F)(F)F)c1 [N-(2-oxo-2-((3S,4S)-1-(cis-4-phenylcyclohexyl)-4-propoxypyrrolidin-3-ylamino)ethyl)-3-(trifluoromethyl)benzamide] | 1.8 | 158

From BindingDB's records for doi:10.1016/j.bmcl.2010.10.020 (Incyte, 2010)
